Assay results as given in patent US4390547A, “2,2-Dimethyl-3-(substituted ethyl)cyclopropane carboxylate pesticidal compositions and methods” (priority 1981, dated 1983).

Assays:
[1] = system: housefly (Musca domestica); experiment: Mortality test against houseflies by topical application (Test Example 1); assay type: in vivo; settings: 24 h
Description: Each test compound was accurately weighed and a 1% solution and an 0.1% solution of the sample in acetone were prepared. A 1 μl portion of either of the above solutions was micropipetted onto the thoracic dorsal part of each female adult housefly (Musca domestica) under ether anaesthesia and the fly was released in a high-walled dish together with feed. The dish was covered with a metal-wire net and maintained at 25° C. After 24 hours, the test flies were inspected for deaths and the mortality (%) was calculated. Thirty test flies were used per concentration group.

[2] = system: guppies; experiment: Fish toxicity test (Test Example 4); assay type: in vivo; settings: concentration killing 50% of female guppies during 48 hours, 20° C.; [Mixture] = cis/trans 50/50
Description: The mixture was stirred well to prepare a test water. Ten female guppies from 3 to 4 months of age were released into the test water and maintained at 20° C. The concentration of the test compound at which 50% of the guppies were killed during the ensuring 48 hours was determined. [This concentration is referred to as TLm (medium tolerance limit, ppm)].
A rank corresponds to TLm of not less than 10 ppm.
B rank corresponds to TLm of 0.5-10 ppm.
C rank corresponds to TLm of not more than 0.5 ppm.

[3] = system: green rice leafhoppers; experiment: Mortality of green rice leafhoppers on sprayed rice seedlings (Utility Example 1); settings: green rice leafhopper, in vivo, 24 h
Description: (§1) To 30 parts of each of Compounds (1) to (38) were added 50 parts of xylene and 20 parts of Sorpol SM-200 (a surfactant, trademark of Toho Chemical Co., Ltd.). The mixture was stirred well and dissolved to obtain a 30% emulsifiable concentrate.
The emulsifiable concentrate prepared from Compounds (7), (11), (12), (15), (17), (21) and (22) [Each compound is a mixture of cis- and trans-isomer in a ratio of 50/50] in Formulation Example 5 were each diluted 300-fold with water. Then, each of the dilutions was sprayed over rice seedlings 25 days after sowing at the rate of 10 ml/pot. The pot was covered with a wire net and 15 green rice leafhoppers were released under the net. After 24 hours, the leafhoppers were examined for deaths. The mortality (%) was not less than 90% for each of Compounds (7), (11), (12), (15), (17), (21) and (22).

[4] = system: common cabbage worms (Pieris rapae crucivora); settings: common cabbage worm, in vivo, 24 h
Description: as §1
The emulsifiable concentrate prepared from Compounds (7), (11) and (15) [Each compound is a mixture of cis- and trans-isomer in a ratio 20/80] in Formulation Example 5 were each diluted 1000-fold with water. Each of 15 common cabbage worms (Pieris rapae crucivora) per group were dipped into each of the dilutions for three seconds. Then, the worms were released on the leaves of the cabbage. After 24 hours, the worms were examined for deaths. The mortality (%) was not less than 90% for each of Compounds (7), (11) and (15).

Structure (SMILES) | mortality at 1 µg/fly [1] [%] | mortality at 10 µg/fly [1] [%] | TLm (medium tolerance limit) [2] | mortality (%) [3] | mortality (%) [4]
C#CC(OC(=O)[C@@H]1[C@@H](CC(Cl)(Cl)Cl)C1(C)C)c1cccc(Oc2ccccc2)c1 (relative stereo) [(11) [Trans-isomer], 3-Phenoxy-α-ethynylbenzyl 2,2-dimethyl-3-(2,2,2-trichloroethyl)cyclopropanecarboxylate] | 100 | 100 | A (A rank corresponds to TLm of not less than 10 ppm.) | – | –
CC1(C)C(CC(Cl)(Cl)Cl)C1C(=O)OC(C#N)c1cccc(Oc2ccc(Cl)cc2)c1 (stereo not drawn) [(15), 3-(4-Chlorophenoxy)-α-cyanobenzyl 2,2-dimethyl-3-(2,2,2-trichloroethyl)cyclopropanecarboxylate] | – | – | – | not less than 90% | not less than 90%
CC1(C)C(CC(Cl)(Cl)Cl)C1C(=O)OC(C#N)c1cccc(Oc2ccccc2)c1 (stereo not drawn) [Compound (7), 3-Phenoxy-α-cyanobenzyl 2,2-dimethyl-3-(2,2,2-trichloroethyl)cyclopropanecarboxylate] | – | – | – | not less than 90% | not less than 90%
C#CC(OC(=O)C1C(CC(Cl)(Cl)Cl)C1(C)C)c1cccc(Oc2ccccc2)c1 (stereo not drawn) [Compound (11), 3-Phenoxy-α-ethynylbenzyl 2,2-dimethyl-3-(2,2,2-trichloroethyl)cyclopropanecarboxylate] | – | – | – | not less than 90% | not less than 90%
